Assay results: patent publication US20240158446A1, “CYCLIC COMPOUND HAVING SELECTIVE INHIBITORY ACTION ON KRAS OVER HRAS AND NRAS” (CHUGAI SEIYAKU KABUSHIKI KAISHA, priority 2021, published 2024)
Where two headings read alike, the source gives them in different places. Where a SMILES comes first, the peptide text is derived from it. Bridges are numbered along the chain shown (N, C = ends). [ ]: non-standard residue; d: D form. The star is where a group is joined. hPhe(3-Cl-4-CF3) = N[C@@H](CCc1ccc(C(F)(F)F)c(Cl)c1)C(=O)O; NPrPhe(4-CF3) = CCCN[C@@H](Cc1ccc(C(F)(F)F)cc1)C(=O)O; NEtPhe(4-CF3) = CCN[C@@H](Cc1ccc(C(F)(F)F)cc1)C(=O)O; NMeGly(cPent) = CN[C@H](C(=O)O)C1CCCC1; Pro(4,4-F2) = O=C(O)[C@@H]1CC(F)(F)CN1; NMeD = CN[C@@H](CC(=O)O)C(=O)O; NMeL = CN[C@@H](CC(C)C)C(=O)O; Ac6c = NC1(C(=O)O)CCCCC1; Morpholide = C1CN(*)CCO1; NMeA = CN[C@@H](C)C(=O)O; Aze = O=C(O)[C@@H]1CCN1; Ac4c = NC1(C(=O)O)CCC1; NEtG = CCNCC(=O)O; Sar = CNCC(=O)O

Key:
[1] = molecular target: GDP-bound NRAS wild-type protein (Homo sapiens, UniProt P01111); assay: Binding to NRAS by surface plasmon resonance (SPR), Single Cycle Kinetics; conditions: for NRAS/KRAS (ratio of KD value for NRAS to KD value for KRAS) / NRAS/KRAS (ratio of KD value with respect to NRAS to KD value with respect to KRAS): SPR, GDP-bound NRAS wild-type protein vs GDP-bound KRAS wild-type protein
Sequence of GDP-bound NRAS wild-type protein (P01111 whole entry): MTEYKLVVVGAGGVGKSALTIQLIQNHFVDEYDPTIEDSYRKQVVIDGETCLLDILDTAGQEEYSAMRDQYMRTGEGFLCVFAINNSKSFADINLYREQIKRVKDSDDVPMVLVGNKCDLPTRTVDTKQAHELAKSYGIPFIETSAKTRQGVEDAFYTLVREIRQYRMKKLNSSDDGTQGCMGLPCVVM

[2] = molecular target: GDP-bound HRAS wild-type protein (Homo sapiens, UniProt P01112); assay: Binding to HRAS by surface plasmon resonance (SPR), Single Cycle Kinetics; conditions: for HRAS/KRAS (ratio of KD value for HRAS to KD value for KRAS) / HRAS/KRAS (ratio of KD value with respect to HRAS to KD value with respect to KRAS): SPR, GDP-bound HRAS wild-type protein vs GDP-bound KRAS wild-type protein
Sequence of GDP-bound HRAS wild-type protein (P01112 whole entry): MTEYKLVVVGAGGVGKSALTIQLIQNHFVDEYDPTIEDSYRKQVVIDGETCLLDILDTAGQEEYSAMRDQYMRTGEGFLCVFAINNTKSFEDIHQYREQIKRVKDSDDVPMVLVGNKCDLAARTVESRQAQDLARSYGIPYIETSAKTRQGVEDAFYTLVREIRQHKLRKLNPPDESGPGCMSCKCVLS

[3] = molecular target: GDP-bound KRAS wild-type protein (Homo sapiens, UniProt P01116); assay: Binding to KRAS by surface plasmon resonance (SPR), Single Cycle Kinetics; conditions: GDP-bound KRAS wild-type protein, read-out: KRAS KD
Sequence of GDP-bound KRAS wild-type protein (P01116 whole entry): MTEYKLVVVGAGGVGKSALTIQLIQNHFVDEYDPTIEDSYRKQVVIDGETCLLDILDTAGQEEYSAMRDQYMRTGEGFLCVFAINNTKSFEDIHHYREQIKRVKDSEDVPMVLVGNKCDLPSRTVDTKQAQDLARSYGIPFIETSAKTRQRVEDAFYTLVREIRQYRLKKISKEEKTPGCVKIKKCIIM

[4] = SPR Single Cycle Kinetics, 1:1 binding model

Compound | Kd [3, 4] | NRAS/KRAS (ratio of KD value for NRAS to KD value for KRAS) [1] | HRAS/KRAS (ratio of KD value for HRAS to KD value for KRAS) [2] | Kd ([3]; SPR, Single Cycle Kinetics) | also measured
CC[C@H](C)[C@@H]1NC(=O)[C@H](CC2CC2)N(C)C(=O)C[C@@H](C(=O)N(C)CC)N(C)C(=O)[C@H](C2CCCC2)N(C)C(=O)C2(CCC2)NC(=O)[C@@H]2C[C@H](C)CN2C(=O)[C@H](CCc2cc(F)c(C(F)(F)F)c(F)c2)NC(=O)CN(C)C(=O)[C@H](Cc2ccc(C(F)(F)F)cc2)N2CC/C=C\C[C@@H](C2=O)N(C)C(=O)CN(C)C1=O [PP1537, (2S,8S,12S,14S,20S,23S,27S,30S,36S,38Z)-20-cyclopentyl-27-(cyclopropylmethyl)-8-[2-[3,5-difluoro-4-(trifluoromethyl)phenyl]ethyl]-N-ethyl-N,4,12,19,22,26,32,35-octamethyl-30-[(1S)-1-methylpropyl]-3,6,9,15,18,21,25,28,31,34,42-undecaoxo-2-[[4-(trifluoromethyl)phenyl]methyl]spiro[1,4,7,10,16,19,22,26,29,32,35-undecazatricyclo[34.5.1.0^10,14]dotetracont-38-ene-17,1′-cyclobutane]-23-carboxamide] |  |  |  |  | NRAS/KRAS (ratio of KD value for NRAS to KD value for KRAS) ([1]; KD ratio class): AA (a compound having 20 or more is denoted as AA); HRAS/KRAS (ratio of KD value for HRAS to KD value for KRAS) ([2]; KD ratio class): A (a compound having 10 or more and less than 20 is denoted as A); Kd ([3]; SPR, Single Cycle Kinetics, 1:1 binding model): 0.067 nM
CCCN1C(=O)CN(C)C(=O)[C@@H]2CCN2C(=O)[C@H]([C@@H](C)CC)NC(=O)[C@H](CC(C)C)N(C)C(=O)C[C@@H](C(=O)N(C)C)N(C)C(=O)[C@H](C2CCCC2)N(C)C(=O)C2(CCC2)NC(=O)[C@@H]2CCCN2C(=O)[C@H](CCc2ccc(C(F)(F)F)c(Cl)c2)NC(=O)CN(C)C(=O)[C@@H]1Cc1ccc(C(F)(F)F)cc1 [PP0430] ([NMeL]I[Aze][Sar][NPrPhe(4-CF3)][Sar][hPhe(3-Cl-4-CF3)]P[Ac4c][NMeGly(cPent)][NMeD]-NMe2; lactam N-11) | 0.26 nM |  |  |  | NRAS/KRAS (ratio of KD value with respect to NRAS to KD value with respect to KRAS) [1]: B (a compound having 3 or more and less than 10 is denoted as B); HRAS/KRAS (ratio of KD value with respect to HRAS to KD value with respect to KRAS) [2]: B (a compound having 3 or more and less than 10 is denoted as B)
CCC[C@H]1C(=O)N[C@@H]([C@@H](C)CC)C(=O)N(C)CC(=O)N(C)[C@H]2C/C=C\CCN(C2=O)[C@@H](CC2CCCCC2)C(=O)N(C)CC(=O)N[C@@H](CCc2ccc(C(F)(F)F)c(OC)c2)C(=O)N2C[C@H](OCC)C[C@H]2C(=O)N(C)C2(CCC2)C(=O)N(C)[C@@H](C2CCCC2)C(=O)N(C)[C@H](C(=O)N(C)C)CC(=O)N1C [PP2336] |  | A (a compound having 10 or more and less than 20 is denoted as A) | A (a compound having 10 or more and less than 20 is denoted as A) | 0.41 nM | 
CCO[C@@H]1C[C@H]2C(=O)NC3(CC(C)(C)C3)C(=O)N(C)[C@@H](C(CC)CC)C(=O)N(C)[C@H](C(=O)N3CCCC3)CC(=O)N(C)[C@@H](COC)C(=O)N[C@@H]([C@@H](C)CC)C(=O)N(C)CC(=O)N(C)[C@H]3C/C=C\CCN(C3=O)[C@@H](Cc3ccc(C)cc3)C(=O)N(C)CC(=O)N[C@@H](CCc3ccc(C(F)(F)F)c(Cl)c3)C(=O)N2C1 [PP2144] |  | AA (a compound having 20 or more is denoted as AA) | A (a compound having 10 or more and less than 20 is denoted as A) | 0.48 nM | 
CC[C@H](C)[C@@H]1NC(=O)[C@H](CC(C)C)N(C)C(=O)C[C@@H](C(=O)N2CCOCC2)N(C)C(=O)[C@H](C2CCCC2)N(C)C(=O)C2(CCCCC2)NC(=O)[C@@H]2CCCN2C(=O)[C@H](CCc2ccc(C(F)(F)F)c(Cl)c2)NC(=O)CN(C)C(=O)[C@H](Cc2ccc(C(F)(F)F)cc2)N(CC)C(=O)[C@@H]2CCN2C(=O)[C@H](C)N(C)C1=O [PP0222] ([NMeL]I[NMeA][Aze][NEtPhe(4-CF3)][Sar][hPhe(3-Cl-4-CF3)]P[Ac6c][NMeGly(cPent)][NMeD]-Morpholide; lactam N-11) | 0.57 nM | C (A compound having a KD ratio of 0.1 or more and less than 3 is denoted as C) | C (A compound having a KD ratio of 0.1 or more and less than 3 is denoted as C) |  | 
CCCOC[C@H]1C(=O)N[C@@H]([C@@H](C)CC)C(=O)N(C)CC(=O)N(C)[C@H]2C/C=C\CCN(C2=O)[C@@H](Cc2ccc(C(F)(F)F)cc2)C(=O)N(C)CC(=O)N[C@@H](CCc2cc(F)c(C(F)(F)F)c(F)c2)C(=O)N2C[C@@H](C)C[C@H]2C(=O)NC2(CC(C)(C)C2)C(=O)N(C)[C@@H](C2CCCC2)C(=O)N(C)[C@H](C(=O)N(C)CC)CC(=O)N1C [PP2043] |  | A (a compound having 10 or more and less than 20 is denoted as A) | A (a compound having 10 or more and less than 20 is denoted as A) | 0.21 nM | 
CCO[C@@H]1C[C@H]2C(=O)NC3(CCC3)C(=O)N(C)[C@@H](C3CCCC3)C(=O)N(CCC3CCC3)[C@H](C(=O)N3CCOCC3)CC(=O)N(C)[C@@H](CC(C)C)C(=O)N[C@@H]([C@@H](C)CC)C(=O)N(C)CC(=O)N(C)[C@H]3CCCCN(C3=O)[C@@H](Cc3ccc(C(F)(F)F)cc3)C(=O)N(C)CC(=O)N[C@@H](CCc3cc(F)c(C(F)(F)F)c(F)c3)C(=O)N2C1 [PP0650] | 0.62 nM |  |  |  | NRAS/KRAS (ratio of KD value with respect to NRAS to KD value with respect to KRAS) [1]: C (A compound having a KD ratio of 0.1 or more and less than 3 is denoted as C); HRAS/KRAS (ratio of KD value with respect to HRAS to KD value with respect to KRAS) [2]: B (a compound having 3 or more and less than 10 is denoted as B)
CCOC[C@H]1C(=O)N[C@@H]([C@@H](C)CC)C(=O)N(C)CC(=O)N(C)[C@H]2C/C=C\CCN(C2=O)[C@@H](Cc2ccc(C(F)(F)F)cc2)C(=O)N(C)CC(=O)N[C@@H](CCc2cc(F)c(C(F)(F)F)c(F)c2)C(=O)N2C[C@@H](C)C[C@H]2C(=O)NC2(CC(C)(C)C2)C(=O)N(C)[C@@H](C2CCCC2)C(=O)N(C)[C@H](C(=O)N(C)CC)CC(=O)N1C [PP2042] |  | A (a compound having 10 or more and less than 20 is denoted as A) | A (a compound having 10 or more and less than 20 is denoted as A) | 0.14 nM | 
CCO[C@@H]1C[C@H]2C(=O)NC3(CC(C)(C)C3)C(=O)N(C)[C@@H](CC3CCC3)C(=O)N(C)[C@H](C(=O)N(C)C)CC(=O)N(C)[C@@H](COC)C(=O)N[C@@H]([C@@H](C)CC)C(=O)N(C3CC3)CC(=O)N(C)[C@H]3C/C=C\CCN(C3=O)[C@@H](Cc3ccc(C(F)(F)F)cc3)C(=O)N(C)CC(=O)N[C@@H](CCc3ccc(Cl)c(Cl)c3)C(=O)N2C1 [PP2821] | 1.8 nM |  |  |  | NRAS/KRAS (ratio of KD value with respect to GDP-bound NRAS wild-type protein to KD value with respect to KRAS) ([1]; SPR KD ratio NRAS/KRAS, class symbols): A (a compound having 10 or more and less than 20 is denoted as A); HRAS/KRAS (ratio of KD value with respect to GDP-bound HRAS wild-type protein to KD value with respect to KRAS) ([2]; SPR KD ratio HRAS/KRAS, class symbols): A (a compound having 10 or more and less than 20 is denoted as A)
CCCN1C(=O)CN(C)C(=O)CN(CC)C(=O)[C@H]([C@@H](C)CC)NC(=O)[C@H](CC(C)C)N(C)C(=O)C[C@@H](C(=O)N2CCOCC2)NC(=O)[C@H](C2CCCC2)N(C)C(=O)C2(CCC2)NC(=O)[C@@H]2CC(F)(F)CN2C(=O)[C@H](CCc2ccc(C(F)(F)F)c(Cl)c2)NC(=O)CN(C)C(=O)[C@@H]1Cc1ccc(C(F)(F)F)cc1 [PP0334] ([NMeL]I[NEtG][Sar][NPrPhe(4-CF3)][Sar][hPhe(3-Cl-4-CF3)][Pro(4,4-F2)][Ac4c][NMeGly(cPent)]D-Morpholide; lactam N-11) | 4.7 nM | B (a compound having 3 or more and less than 10 is denoted as B) | C (A compound having a KD ratio of 0.1 or more and less than 3 is denoted as C) |  | 
CC[C@H](C)[C@@H]1NC(=O)[C@H](CC(C)C)N(C)C(=O)C[C@@H](C(=O)N2CCOCC2)N(C)C(=O)[C@H](CC(F)(F)F)N(C)C(=O)C2(CCCC2)NC(=O)[C@@H]2CCCN2C(=O)[C@H](CCc2cc(F)c(C(F)(F)F)c(F)c2)NC(=O)CN(C)C(=O)[C@H](Cc2ccc(C(F)(F)F)cc2)N2CCCC[C@@H](C2=O)N(C)C(=O)CN(C)C1=O [PP0568] | 1.1 nM |  |  |  | NRAS/KRAS (ratio of KD value with respect to NRAS to KD value with respect to KRAS) [1]: B (a compound having 3 or more and less than 10 is denoted as B); HRAS/KRAS (ratio of KD value with respect to HRAS to KD value with respect to KRAS) [2]: B (a compound having 3 or more and less than 10 is denoted as B)
CCO[C@@H]1C[C@H]2C(=O)NC3(CCC3)C(=O)N(C)[C@@H](C3CCCC3)C(=O)N(C)[C@H](C(=O)N(C)C)CC(=O)N(C)[C@H]3CCCCCc4ccc(cc4)C[C@@H](C(=O)N(C)CC(=O)N[C@@H](CCc4ccc(C(F)(F)F)c(OC)c4)C(=O)N2C1)N1CC/C=C\C[C@@H](C1=O)N(C)C(=O)CN(C)C(=O)[C@H]([C@@H](C)CC)NC3=O [PP2262] |  | A (a compound having 10 or more and less than 20 is denoted as A) | B (a compound having 3 or more and less than 10 is denoted as B) | 0.24 nM | 
